Columns and labels:
[1] = Beverage swallowing test: duration of cooling in throat and chest and adverse taste ranking; assay type: in vivo, human; settings: for Duration of effects (in words): compared with the shorter DIPA analogs; for Duration Cool: 20 mg in 50 mL (0.4 mg/mL); for Min. (cooling): 50 mL beverage; for Onset of cooling action in the chest (in words): in vivo
From the text: DIPA compounds dissolved in water have an unpleasant, bitter, and metallic taste. The goal of the experiments was to find an adjunct that would make the DIPA beverage palatable. The anatomic sites for bitterness (adverse taste) are primarily on the dorsal surface of the posterior one-third of the tongue. The coolness and refreshment areas are on the hypopharynx and the upper one-third of the esophagus (FIG. 1). These are two different anatomic sites. Sensations of coolness from the oral cavity and oropharynx are not the primary targets. The esophagus is in the center of the thorax. When its lumen feels “cool,” this is like turning on the central air conditioner for the body. The goal of the beverage is to turn on this central air conditioning for at least 30 min and preferably longer without adverse tastes in the oral cavity. That is, the goal is to produce cool in the center of the chest but without bitter taste. A standard procedure was set. The cooling agent at various concentrations was made up to 50 mL with a liquid in a plastic cup (Flak Tek, Inc. South Carolina), beaker, whiskey glass, or bottle. For example, the final concentration of the coolant in the test solution may range from 0.1 to 0.5 mg/mL. The temperature of the liquid was measured and then swallowed. For example, 50 mL could be swallowed in five gulps or sipped. The duration of cooling in the throat and chest was recorded at various intervals until the cooling disappeared. The ranking of adverse taste was on a scale of 0 (no adverse taste), 1 (mild taste), 2 (moderate taste), or 3 (adverse taste). The value was for at least three trials per beverage.
Examples of test procedures and results. The usual method was to prepare a 2-mL vial containing a DIPA dissolved in water. The contents of the vial were added to beverages such as beer, soda drinks, fruit juice, coffee, tea, or water. A taste-modulating adjunct such as a sweetener can be in the 2-mL vial or present in the beverage. The drink is gulped at about 5 mL per swallow. The time and temperatures are noted. The onset of coolness in the center of the upper chest usually occurs within 3 min. For active compounds, this effect was pleasant and, depending on dose, could last for 10 minutes, an hour, or more. Gulping the liquid was important. When held in the mouth, the drink is cool and may have taste, but cooling in the center of the chest is reduced. Thus, sipping is not the correct method of drinking. Using these methods, a bottle of beer (e.g., ˜330 mL containing 33 mg of DIPA-1-9), if drank in a leisurely setting for one hour, can provide comfortable body cooling for 3 hr. Similarly, a smaller bottle of carbonated soda water (e.g., 200 mL), containing 15 mg of DIPA-1-6 produced immediate cooling relief for 30 min for individuals, for example, taking a break from playing tennis in the heat. For pharmaceutical uses, a tinted bottle with 20 mg of DIPA-1-9 in 50 mL of water with Splenda's Monk Fruit dissolved in it would be palatable and relieve the discomforts of indigestion.

[2] = as above; assay type: in vivo, human; settings: for Duration of Cooling: 0.4 mg/mL in Monk fruit sweetened water (1 pack Splenda Monk Fruit per 100 mL), 30 mL, throat; for Dose sufficient for a robust, immediate cooling response: in 15 mL
[3] = DIPA cooling on the effects of a hotpot meal; assay type: in vivo, human; settings: 0.5 mg/mL in water containing 1 packet of Splenda's Monk Fruit sweetener per 200 mL
From the text: DIPA Cooling on the effects of a “hotpot” meal. A hotpot meal has been prevalent in central China (Sichuan province) for over a thousand years and has become very popular in many parts of Asia today. It is a family affair with a boiling pot of broth in the middle of the table, and everyone cooks food in the broth. Exceptionally spicy chili pepper is in the soup, and even in summer, the air-conditioning is off, so everybody sweats. The general idea is to get so hot that one becomes desensitized to the hot weather. […] Another method for relief from the hotpot is to incorporate it into a beer at DIPA-1-9 0.1 mg/ml, and commercialize it as “HotPot Beer.”

TRPV1 = molecular target: T1, TRPV1 (Homo sapiens, UniProt Q8NER1); assay: Activation of TRPV1-transfected cells; assay type: cell-based
T1 construct: expressed in transfected cells
T1 sequence (Q8NER1 whole entry): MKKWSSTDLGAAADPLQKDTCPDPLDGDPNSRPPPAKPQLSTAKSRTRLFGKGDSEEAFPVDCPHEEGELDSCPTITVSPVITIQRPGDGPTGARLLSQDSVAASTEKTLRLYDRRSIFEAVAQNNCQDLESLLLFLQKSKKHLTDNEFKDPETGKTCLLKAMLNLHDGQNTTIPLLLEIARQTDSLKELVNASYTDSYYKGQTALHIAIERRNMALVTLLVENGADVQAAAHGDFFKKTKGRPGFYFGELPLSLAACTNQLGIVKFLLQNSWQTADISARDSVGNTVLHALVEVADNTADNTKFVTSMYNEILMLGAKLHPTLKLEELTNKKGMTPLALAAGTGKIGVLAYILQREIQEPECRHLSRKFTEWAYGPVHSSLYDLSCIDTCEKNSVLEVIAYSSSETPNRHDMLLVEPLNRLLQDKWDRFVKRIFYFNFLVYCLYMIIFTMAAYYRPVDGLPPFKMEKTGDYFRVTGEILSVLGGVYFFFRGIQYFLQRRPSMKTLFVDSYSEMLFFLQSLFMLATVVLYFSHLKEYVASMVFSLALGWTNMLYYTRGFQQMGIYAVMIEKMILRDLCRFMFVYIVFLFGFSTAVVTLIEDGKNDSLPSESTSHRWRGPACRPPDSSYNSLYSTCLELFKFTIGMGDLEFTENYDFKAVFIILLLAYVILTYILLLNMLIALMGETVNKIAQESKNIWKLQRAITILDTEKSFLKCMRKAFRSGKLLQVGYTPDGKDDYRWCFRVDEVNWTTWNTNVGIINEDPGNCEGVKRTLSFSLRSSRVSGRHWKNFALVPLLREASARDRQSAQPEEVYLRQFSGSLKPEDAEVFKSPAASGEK

TRPA1 = molecular target: T2, TRPA1 (Homo sapiens, UniProt O75762); assay: Activation of TRPA1-transfected cells; assay type: cell-based
T2 construct: expressed in transfected cells
T2 sequence (O75762 whole entry): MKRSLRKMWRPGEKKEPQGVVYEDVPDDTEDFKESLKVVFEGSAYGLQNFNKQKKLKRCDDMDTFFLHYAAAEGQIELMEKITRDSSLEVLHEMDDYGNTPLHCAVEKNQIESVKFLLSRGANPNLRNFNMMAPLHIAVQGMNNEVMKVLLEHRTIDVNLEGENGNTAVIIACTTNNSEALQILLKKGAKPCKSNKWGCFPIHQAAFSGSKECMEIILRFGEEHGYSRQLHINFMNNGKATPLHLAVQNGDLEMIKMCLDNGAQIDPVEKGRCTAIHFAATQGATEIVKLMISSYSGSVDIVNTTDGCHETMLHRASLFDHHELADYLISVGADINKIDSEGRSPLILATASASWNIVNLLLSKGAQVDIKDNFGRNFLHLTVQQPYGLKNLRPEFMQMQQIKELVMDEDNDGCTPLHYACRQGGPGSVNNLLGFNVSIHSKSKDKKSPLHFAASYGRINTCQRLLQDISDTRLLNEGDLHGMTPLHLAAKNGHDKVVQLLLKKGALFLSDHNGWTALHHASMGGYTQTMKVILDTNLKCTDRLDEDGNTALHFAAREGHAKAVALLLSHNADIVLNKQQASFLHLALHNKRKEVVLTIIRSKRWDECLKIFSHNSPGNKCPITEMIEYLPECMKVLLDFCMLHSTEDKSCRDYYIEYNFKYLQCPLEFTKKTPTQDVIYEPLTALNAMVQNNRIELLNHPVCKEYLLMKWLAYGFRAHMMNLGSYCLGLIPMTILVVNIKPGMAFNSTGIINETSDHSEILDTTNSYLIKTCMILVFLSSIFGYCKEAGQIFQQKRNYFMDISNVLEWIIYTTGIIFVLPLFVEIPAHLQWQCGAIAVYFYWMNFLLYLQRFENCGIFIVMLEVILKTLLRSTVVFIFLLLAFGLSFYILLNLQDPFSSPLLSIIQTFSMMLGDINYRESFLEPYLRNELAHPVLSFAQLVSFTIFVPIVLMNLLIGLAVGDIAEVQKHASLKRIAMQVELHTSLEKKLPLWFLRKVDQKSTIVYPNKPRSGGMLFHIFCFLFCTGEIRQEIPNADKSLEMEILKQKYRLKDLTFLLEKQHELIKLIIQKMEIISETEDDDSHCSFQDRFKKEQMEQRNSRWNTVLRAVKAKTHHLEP

[4] = Water solubility of 1-dialkylphosphorylalkanes; assay type: physicochemical
From the text: The DIPA compounds are colorless liquids with a density less than water. These structures differ from those described by Rowsell and Spring U.S. Pat. No. 4,070,496 because '496 structures have their “head” (phosphine oxide group) covered by larger, more lipophilic groups. […] The applicant synthesized these analogs (which are achiral, by contrast to the structures of '496, which are >95% chiral). […] This increased water-solubility is striking (Table 3). Additional details on the bioactivity and pharmacology of these DIPA can be found in the paper by Yang et al., [(2017). A novel TRPM8 agonist relieves dry eye discomfort. BMC Ophthalmology, 17(1). https://doi.org/10.1186/s12886-017-0495-2], incorporated herein by reference.

TRPM8 receptor = TRPM8 receptor (Homo sapiens, UniProt Q7Z2W7); assay: TRPM8 receptor agonist activity; assay type: cell-based
TRPM8 receptor, sequence (Q7Z2W7 whole entry): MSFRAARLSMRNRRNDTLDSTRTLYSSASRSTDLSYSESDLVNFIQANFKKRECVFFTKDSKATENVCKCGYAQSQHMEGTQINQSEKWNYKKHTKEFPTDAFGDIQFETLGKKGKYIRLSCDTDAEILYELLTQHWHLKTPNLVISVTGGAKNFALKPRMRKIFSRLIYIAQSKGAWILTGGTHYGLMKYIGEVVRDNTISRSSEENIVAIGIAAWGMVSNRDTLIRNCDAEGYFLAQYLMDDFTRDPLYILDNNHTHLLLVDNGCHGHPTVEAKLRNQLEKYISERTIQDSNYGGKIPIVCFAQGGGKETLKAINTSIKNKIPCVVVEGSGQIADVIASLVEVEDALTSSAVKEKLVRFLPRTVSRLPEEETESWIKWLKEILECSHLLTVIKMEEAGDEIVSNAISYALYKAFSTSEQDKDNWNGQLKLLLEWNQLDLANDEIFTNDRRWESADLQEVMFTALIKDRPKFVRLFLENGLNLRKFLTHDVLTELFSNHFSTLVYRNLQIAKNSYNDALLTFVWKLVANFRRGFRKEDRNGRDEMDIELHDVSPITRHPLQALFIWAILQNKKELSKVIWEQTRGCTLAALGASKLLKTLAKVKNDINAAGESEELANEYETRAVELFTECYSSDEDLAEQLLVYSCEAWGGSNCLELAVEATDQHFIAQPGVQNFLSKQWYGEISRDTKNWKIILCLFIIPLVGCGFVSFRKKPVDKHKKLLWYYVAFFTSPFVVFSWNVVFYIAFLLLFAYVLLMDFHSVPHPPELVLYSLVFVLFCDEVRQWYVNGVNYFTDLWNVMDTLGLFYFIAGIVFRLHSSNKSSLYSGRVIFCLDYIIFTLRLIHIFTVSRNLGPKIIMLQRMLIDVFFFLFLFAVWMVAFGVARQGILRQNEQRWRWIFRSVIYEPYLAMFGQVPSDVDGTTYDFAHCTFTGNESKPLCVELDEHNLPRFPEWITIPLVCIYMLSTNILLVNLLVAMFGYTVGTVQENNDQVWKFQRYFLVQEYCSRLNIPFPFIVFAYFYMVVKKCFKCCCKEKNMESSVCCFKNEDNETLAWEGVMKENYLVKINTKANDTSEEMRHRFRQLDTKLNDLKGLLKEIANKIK

For `CCCCCCCCP(=O)(C(C)C)C(C)C` [DIPA-1-8, 1-Di(isopropyl)-phosphinoyl-octane], the “Duration of effects (in words)” value [1] was “more long-lasting”, the Effective dose ([1]; in a whiskey glass) was 15 mg and the “Duration of Cooling” value [2] was 43 min.

For `CCCCCCCCCP(=O)(C(C)C)C(C)C` [DIPA-1-9, 1-Diisopropyl-phosphinoyl-nonane], the Onset of relief [3] was “within several minutes”, the “Relief after a hotpot meal (in words)” value [3] was “relieves the pain in the oral cavity and throat” and the “Activation of TRPV1-transfected cells” value (TRPV1) was “does not activate”. For the same compound, the Duration ([1]; 0.4 mg/L, apple juice (Martinelli, Mott's), 21 °C) was 34 min, the Duration ([1]; 0.4 mg/L, grape juice (Welch Grape), 20 °C) was 35 min and the Duration ([1]; 0.4 mg/L, guarana juice soda (Guarana Antarctica), 10 °C) was 40 min. The Duration ([1]; 0.4 mg/L, orange juice (fresh-squeezed), 8 °C) was 40 min, the Duration ([1]; 0.4 mg/L, sweetened soda (Coca-Cola), 7 °C) was 25 min and the Duration ([1]; 0.4 mg/L, wine (Moscato d'Asti), 8 °C) was 36 min. It also gave a Duration ([1]; 0.4 mg/mL, hot cappuccino drink (3 Coracoes, Brazil), 70 °C) of 30 min, a Duration ([1]; 0.4 mg/mL, hot coffee + herbal sweetener (117 + Stevia extracts), 75 °C) of 36 min and a Duration ([1]; 0.4 mg/mL, hot coffee cream/sugar (117, Nescafe), 65 °C) of 35 min. The Duration ([1]; 0.4 mg/mL, hot coffee-no cream or sugar (117, Nescafe), 62 °C) was 30 min, the Duration ([1]; 0.4 mg/mL, hot water + monk fruit (Splenda monk fruit), 50 °C) was 42 min and the Duration ([1]; 0.4 mg/mL, hot water + monk fruit (Splenda monk fruit), 70 °C) was 38 min. For the same compound, the Duration ([1]; 0.4 mg/mL, iced cold cappuccino (Starbuck's frappaccino), 8 °C) was 25 min, the Duration ([1]; 0.4 mg/mL, red tea (Peach-Ceylon, no sweetener), 46 °C) was 31 min and the Duration ([1]; 0.4 mg/mL, sweetened tea (Ito En + 10% sucrose), 10 °C) was 38 min. The Duration ([1]; 0.4 mg/mL, sweetened tea (Ito En + Truvia or Monk's Fruit), 10 °C) was 40 min, the Duration ([1]; 0.4 mg/mL, unsweetened green tea (Ito En), 10 °C) was 35 min and the “Duration Cool” value ([1]; carbonated water (Perrier, La Croix), 8 °C) was 45 min. For the same compound, the “Duration Cool” value ([1]; water (Crystal Geyser), 10 °C) was 48 min, the “Duration Cool” value ([1]; water (Crystal Geyser), 25 °C) was 42 min and the “Duration Cool” value ([1]; water (Crystal Geyser), 74 °C) was 45 min. The “Duration Cool” value ([1]; water + herbal sweetener (+Stevia leaf), 8 °C) was 40 min, the “Duration Cool” value ([1]; water + herbal sweetener (+Stevia leaf), 22 °C) was 35 min and the “Duration Cool” value ([1]; water + herbal sweetener (+Stevia leaf), 72 °C) was 32 min. The “Duration Cool” value ([1]; water + synthetic sweetener (Neotame at 0.2 mg/mL), 10 °C) was 40 min, the “Min. (cooling)” value ([1]; 0.2 mg/mL + Stevia, 20 °C) was 12 min and the “Min. (cooling)” value ([1]; 0.4 mg/mL + Stevia, 20 °C) was 35 min. For the same compound, the “Min. (cooling)” value ([1]; 0.4 mg/mL + Sucrose (10%), 20 °C) was 42 min, the “Min. (cooling)” value ([1]; 0.8 mg/mL + Stevia, 20 °C) was 55 min and the “Min. (cooling)” value ([1]; 0.8 mg/mL + Sucrose (10%), 20 °C) was 39 min. The “Min. (cooling)” value ([1]; 0.8 mg/mL + Sucrose (15%), 20 °C) was 45 min, the Duration ([1]; Sake (Japanese rice wine), 10 °C) was 32 min and the Duration ([1]; beer (Heineken), 7 °C) was 44 min. For the same compound, the “Duration of comfortable body cooling” value ([1]; bottle of beer ~330 mL containing 33 mg, drunk over one hour) was 3 h, the “Duration of effects (in words)” value [1] was “more long-lasting” and the Duration ([1]; ginger ale (Canada Dry), 11 °C) was 25 min. For the same compound, the Duration ([1]; ginger beer, juice (Q beer, Suja), 9 °C) was 40 min, the Effective dose ([1]; in a standard beer bottle) was 33 mg and the Duration ([1]; non-alcoholic beer (Heineken 00), 7 °C) was 40 min. For the same compound, the Duration ([1]; tonic water with quinine (Schweppes), 7 °C) was 42 min, the Duration ([1]; wheat ale (Blue Moon), 9 °C) was 35 min and the “Activation of TRPA1-transfected cells” value (TRPA1) was “does not activate”. For the same compound, the “Duration of Cooling” value [2] was 48 min.

With `CCCCCCP(=O)(C(C)C)C(C)C` [DIPA-1-6, 1-Di(isopropyl)-phosphinoyl-hexane] the “Duration of immediate cooling relief” value ([1]; 200 mL carbonated soda water containing 15 mg) was 30 min, the “Onset of cooling action in the chest (in words)” value (“Onset of cooling action” for short) [1] was “immediate” and the “Duration of Cooling” value [2] was 20 min. For the same compound, the “Dose sufficient for a robust, immediate cooling response” value [2] was 10 mg.

With `CCCCCP(=O)(C(C)C)C(C)C` [DIPA-1-5, 1-Di(isopropyl)-phosphinoyl-pentane] the “Onset of cooling action” value [1] was “immediate”, the “Duration of Cooling” value [2] was 12 min and the “Dose sufficient for a robust, immediate cooling response” value [2] was 10 mg.

`CCCCCP(=O)(C(C)CC)C(C)CC` (centres unmarked) [di-sec-butyl- pentane] showed a Water solubility [4] of 22 mg/mL.

In the case of `CCCCCCCP(=O)(C(C)C)C(C)C` [DIPA-1-7, 1-Di(isopropyl)-phosphinoyl-heptane], the “Onset of cooling action” value [1] is reported as “immediate” and the “Duration of Cooling” value [2] is reported as 36 min.

For `CCCCCCCCCCP(=O)(C(C)C)C(C)C` [DIPA-1-10], the EC50 (TRPM8 receptor) was “inactive”, the “Duration of Cooling” value [2] was 0 min and the Water solubility [4] was under 3 mg/mL.
